Measurements published in ChEMBL document CHEMBL1130150, “Conformationally restricted analogues of trimethoprim: 2,6-diamino-8-substituted purines as potential dihydrofolate reductase inhibitors from Pneumocystis carinii and Toxoplasma gondii” (J Med Chem, 1997).

Tests used:
[1] = target: T1, Bifunctional dihydrofolate reductase-thymidylate synthase (Toxoplasma gondii, UniProt Q07422); assay: Inhibition of Toxoplasma gondii dihydrofolate reductase
T1 sequence (Q07422 whole entry): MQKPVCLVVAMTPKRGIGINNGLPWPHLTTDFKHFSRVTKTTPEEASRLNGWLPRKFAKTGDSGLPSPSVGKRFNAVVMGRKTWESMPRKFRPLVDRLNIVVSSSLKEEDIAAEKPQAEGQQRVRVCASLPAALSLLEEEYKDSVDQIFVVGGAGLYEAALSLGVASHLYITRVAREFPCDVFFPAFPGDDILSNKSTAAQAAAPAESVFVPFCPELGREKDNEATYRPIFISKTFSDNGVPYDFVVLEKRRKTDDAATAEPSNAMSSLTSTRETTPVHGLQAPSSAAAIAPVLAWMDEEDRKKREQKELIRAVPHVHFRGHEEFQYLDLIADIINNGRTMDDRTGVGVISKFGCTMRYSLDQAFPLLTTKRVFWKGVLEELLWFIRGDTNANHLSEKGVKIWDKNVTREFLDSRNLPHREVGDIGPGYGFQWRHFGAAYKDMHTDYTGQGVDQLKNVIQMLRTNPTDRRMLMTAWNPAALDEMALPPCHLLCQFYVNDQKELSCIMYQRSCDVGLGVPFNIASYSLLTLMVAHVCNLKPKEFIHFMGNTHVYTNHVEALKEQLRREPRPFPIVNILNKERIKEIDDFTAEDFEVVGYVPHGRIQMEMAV

Dihydrofolate reductase [2] = target: T2, Dihydrofolate reductase (Rattus norvegicus, UniProt Q920D2)
T2 sequence (Q920D2 whole entry): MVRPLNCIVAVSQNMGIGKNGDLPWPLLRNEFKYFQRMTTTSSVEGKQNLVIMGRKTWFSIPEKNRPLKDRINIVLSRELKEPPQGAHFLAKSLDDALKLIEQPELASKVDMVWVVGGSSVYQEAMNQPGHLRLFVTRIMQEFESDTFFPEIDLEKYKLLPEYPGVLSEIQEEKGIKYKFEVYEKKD
Description: Inhibition of rat liver dihydrofolate reductase

Dihydrofolate reductase [3] = target: T3, Dihydrofolate reductase (Pneumocystis carinii, UniProt P16184)
T3 sequence (P16184 whole entry): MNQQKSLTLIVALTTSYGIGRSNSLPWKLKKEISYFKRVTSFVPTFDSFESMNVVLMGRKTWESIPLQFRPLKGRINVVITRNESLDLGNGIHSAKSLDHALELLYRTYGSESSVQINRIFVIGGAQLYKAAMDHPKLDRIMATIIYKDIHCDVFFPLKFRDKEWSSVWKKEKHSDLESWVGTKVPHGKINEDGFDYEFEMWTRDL
Description: Inhibition of Pneumocystis carinii dihydrofolate reductase

[4] = target: T4, Dihydrofolate reductase (Rattus norvegicus) (UniProt Q920D2); assay: Percent inhibition against rat liver Dihydrofolate reductase; parameters: concentration or dose not given beside the values; details: concentration not given here
T4 sequence (whole entry): T2 sequence (Q920D2 whole entry)

[5] = target: T5, Bifunctional dihydrofolate reductase-thymidylate synthase (Toxoplasma gondii) (UniProt Q07422); assay: Percent inhibition against Toxoplasma gondii Dihydrofolate reductase; details: concentration not given here
T5 sequence (whole entry): T1 sequence (Q07422 whole entry)

SMILES	IC50 [1]	IC50 (Dihydrofolate reductase [2])	IC50 (Dihydrofolate reductase [3])	inhibition [4]	inhibition [5]
Nc1nc(N)c2nc(-c3ccccc3)[nH]c2n1	28 µM	59.9 µM	153 µM	–	–
Nc1nc(N)c2nc(C3c4ccccc4-c4ccccc43)[nH]c2n1	–	–	35 µM	–	–
Nc1nc(N)c2[nH]c(-c3c(Cl)cccc3Cl)nc2n1	11 µM	11 µM	11 µM	4%	6%
COc1ccc(-c2nc3c(N)nc(N)nc3[nH]2)c(OC)c1OC	1.8 µM	3.7 µM	17 µM	–	–
Nc1nc(N)c2[nH]c(-c3ccc(-c4ccccc4)cc3)nc2n1	32.9 µM	30.1 µM	605 µM	–	–
COc1ccc(-c2nc3c(N)nc(N)nc3[nH]2)cc1OC	–	52.3 µM	12 µM	–	–
Nc1nc(N)c2[nH]c(-c3ccncc3)nc2n1	20 µM	18 µM	18 µM	0%	14%
COc1cc(NCc2nc3[nH]c(N)nc(N)c-3n2)cc(OC)c1OC	–	–	–	19%	5%
COc1cc(-c2nc3nc(N)nc(N)c3[nH]2)cc(OC)c1OC	2.2 µM	13 µM	59.4 µM	–	–
COc1cc(-c2nc3nc(N)nc(N)c3[nH]2)c([N+](=O)[O-])cc1OC	–	25 µM	25 µM	–	–
COc1ccc(OC)c(NCc2nc3c(N)nc(N)nc3[nH]2)c1	49 µM	29 µM	29 µM	15%	–
COc1cc(OC)cc(-c2nc3nc(N)nc(N)c3[nH]2)c1	3 µM	32.4 µM	–	–	–
COc1cc(OC)c(-c2nc3nc(N)nc(N)c3[nH]2)cc1OC	1.5 µM	7 µM	22 µM	–	–
COc1cc(OC)c(-c2nc3nc(N)nc(N)c3[nH]2)c(OC)c1	0.84 µM	1.88 µM	31.5 µM	–	–
COc1cc(-c2nc3c(N)nc(N)nc3[nH]2)cc(OC)c1O	1 µM	15.3 µM	68 µM	–	–
COc1cc(-c2nc3[nH]c(N)nc(N)c-3n2)c([N+](=O)[O-])cc1OC	–	–	–	14%	–
Nc1nc(N)c2[nH]c(CSc3ccc4ccccc4c3)nc2n1	45 µM	107 µM	105 µM	–	–
Nc1nc(N)c2nc(Cc3ccccc3)[nH]c2n1	0.5 µM	1.6 µM	–	–	–
COc1ccc(OC)c(-c2nc3nc(N)nc(N)c3[nH]2)c1	1.7 µM	3.5 µM	37.4 µM	–	–
COc1ccc(-c2nc3[nH]c(N)nc(N)c-3n2)c2ccccc12	13 µM	13 µM	13 µM	15%	10%
COc1ccc(-c2nc3nc(N)nc(N)c3[nH]2)c(OC)c1	2.4 µM	0.9 µM	14 µM	–	–
Nc1nc(N)c2nc(-c3ccc4ccccc4c3)[nH]c2n1	27 µM	280 µM	113 µM	–	–
Nc1nc(N)c2[nH]c(-c3ccc(Cl)c(Cl)c3)nc2n1	6.7 µM	252 µM	–	–	–
